Laboratory results from patent publication US5703072A, “Bicyclic nonane and decane compounds having dopamine receptor affinity” (Allelix Biopharmaceuticals, priority 1996, dated 1997).

Experiments:
[1] = target: T1, human D4 receptor (D4.2 sub-type) (Homo sapiens, UniProt P21917, DEL265-296); test: D4 receptor binding: displacement of 3H-spiperone; conditions: D4 affinity; 3H-spiperone displacement
T1 construct: expressed in transfected cells; host or cells: HEK 298 (human embryonic kidney) cells (so in the source); homogenate of stably transfected cells
T1 sequence (P21917 with tags, fused parts or gaps DEL265-296): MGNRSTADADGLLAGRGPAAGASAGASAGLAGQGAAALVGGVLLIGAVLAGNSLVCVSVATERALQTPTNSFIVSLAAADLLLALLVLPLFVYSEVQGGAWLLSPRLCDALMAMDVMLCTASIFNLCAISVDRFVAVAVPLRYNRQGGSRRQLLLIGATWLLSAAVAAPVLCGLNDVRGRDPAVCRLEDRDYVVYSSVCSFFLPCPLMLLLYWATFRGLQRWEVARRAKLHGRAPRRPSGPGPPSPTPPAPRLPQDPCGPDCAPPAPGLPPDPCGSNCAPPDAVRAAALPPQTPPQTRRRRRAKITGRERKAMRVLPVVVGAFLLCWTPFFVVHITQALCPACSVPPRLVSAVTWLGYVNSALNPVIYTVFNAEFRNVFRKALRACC
Description: (§1) The potency of the test compound to reduce ^3 H-spiperone binding directly correlated to its binding affinity for the receptor.
The cells were then centrifuged in a Sorval centrifuge for 10 min, 5000 rpm (GS3 rotor) and the pellets quickly frozen in liquid nitrogen and stored at -80° C. until used in binding assay. When used in the assay, cells were thawed on ice for 20 min and then 1 mL of incubation buffer (50 mM Tris, 1 mM EDTA, 4 mM MgCl2, 5 mM KCl, 1.5 mM CaCl2, 120 mM NaCl, pH7.4) was added. […] Concentration of receptor protein was determined using the Pierce BCA assay.
(§2) The tubes were vortexed and incubated at room temperature for 90 minutes. The binding reaction was stopped by filtering using a Brandell Cell Harvester. The samples were filtered under vacuum over glass fibre filters (Whatman GF/B) presoaked for 2 hours in 0.3% polyethylenimine (PEI) in 50 mM Tris buffer (pH 7.4). The filters were then washed 3 times with 5 ml ice cold 50 mM Tris buffer (pH 7.4). Individual filter disks were put in scintillation vials (Biovials, Bechman). Ready Protein Plus liquid scintillant (5 ml, Beckman) was added and the vials counted by liquid scintillation spectrophotometry (Beckman LSC 6500) after equilibrating for three hours at room temperature to determine total binding (BT).
The tubes were vortexed and incubated at room temperature for 90 minutes at which time the binding reaction was stopped by filtering. The filters were washed and counted using the same procedure as in the total binding assay described above to give the non-specific binding value (NSB).
(§3) The incubation was started by the addition to 12×75 mm polypropylene tubes 500 μl (50 μg protein) membrane homogenate to a solution of 400 μl incubation buffer, 100 μl ([…].) ^3 H-spiperone (90 Ci/mmol, Amersham, diluted in borosilicate glass vial to) and 500 μl of test compound that was prepared from 1 mM stock dissolved in DMSO and stored at -20° C. in polypropylene cryogenic storage vials until dilution in incubation buffer in borosilicate glass vials. The tubes were vortexed and incubated at room temperature for 90 minutes at which time the binding reaction was stopped by filtering. The filters were washed and counted using the same procedure as in the total binding assay described above to give the displacement binding value (BD).
(§4) IC50 was determined from an inhibition response curve, logit-log plot of %B/B0 vs concentration of test compound.
(§5) Ki was calculated by the Cheng and Prustoff transformation: Ki=IC50 /(1+[L]/KD) where [L] is the concentration of ^3 H-spiperone used in the assay and KD is the dissociation constant of ^3 H-spiperone determined independently under the same binding conditions.

[2] = target: T2, human D2 receptor (short isoform) (Homo sapiens, UniProt P14416); test: D2 receptor binding (displacement of 3H-spiperone) relative to D4: D2/D4 selectivity; conditions: D2/D4 ratio
T2 construct: 3H-spiperone displacement
T2 sequence (P14416 with tags, fused parts or gaps DEL242-270): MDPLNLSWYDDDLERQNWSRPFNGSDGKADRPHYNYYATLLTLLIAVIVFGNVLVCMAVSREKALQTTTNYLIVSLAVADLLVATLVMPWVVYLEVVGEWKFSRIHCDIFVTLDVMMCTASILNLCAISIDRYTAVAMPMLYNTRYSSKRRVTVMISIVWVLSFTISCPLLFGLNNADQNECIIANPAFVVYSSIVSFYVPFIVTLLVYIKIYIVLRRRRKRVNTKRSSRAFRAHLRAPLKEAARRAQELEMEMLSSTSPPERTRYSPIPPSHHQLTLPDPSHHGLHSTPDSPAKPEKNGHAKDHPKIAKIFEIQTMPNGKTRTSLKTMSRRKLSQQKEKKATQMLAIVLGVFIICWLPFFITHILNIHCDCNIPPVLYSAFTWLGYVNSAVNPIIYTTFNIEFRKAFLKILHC
Description: as §1
GH4 C1 (rat pituitary) cells stably transfected with the human D2 receptor (short isoform) were grown in CO2 independent media in roller bottles (1500 cm^2) for 10 days. 100 μM ZnSO4 was added to the cells (the D2 promoter being zinc inducible). After 16 hours, fresh media was added to allow the cells to recover for 24 hours. The cells were harvested using versine and then centrifuged in a Sorval centrifuge for 10 minutes, at 5000 rpm (GS3 rotor). Pellets were quickly frozen in liquid nitrogen and stored at -80° C. until used in the binding assays. When used in the assay, cells were thawed on ice for 20 minutes. […] The receptor protein concentration was determined using the Pierce BCA assay.
as §2
This assay employed the same procedures as the non-specific binding assay for D4 with the exception that 2 μM (final conc.) of (-) sulpiride (Research Chemicals Inc.) was used in place of dopamine.
as §3, §4, §5

human D4 receptors = target: T3, human D4 receptors (Homo sapiens, UniProt P21917); test: Antagonist assay: reversal of dopamine inhibition of forskolin-stimulated adenyl cyclase (cAMP) in CHO Pro 5 cells; format: cell-based; conditions: dopamine and forskolin both 10 μM; for inhibition at 1 µM: test compound 1 μM, read-out: % REVERSAL OF DOPAMINE EFFECT, 1 μM; for inhibition at 10 µM: test compound 10 μM, read-out: % REVERSAL OF DOPAMINE EFFECT, 10 μM
T3 construct: expressed in transfected cells; host or cells: CHO Pro 5 cells, stably expressing
T3 sequence (P21917 1-419): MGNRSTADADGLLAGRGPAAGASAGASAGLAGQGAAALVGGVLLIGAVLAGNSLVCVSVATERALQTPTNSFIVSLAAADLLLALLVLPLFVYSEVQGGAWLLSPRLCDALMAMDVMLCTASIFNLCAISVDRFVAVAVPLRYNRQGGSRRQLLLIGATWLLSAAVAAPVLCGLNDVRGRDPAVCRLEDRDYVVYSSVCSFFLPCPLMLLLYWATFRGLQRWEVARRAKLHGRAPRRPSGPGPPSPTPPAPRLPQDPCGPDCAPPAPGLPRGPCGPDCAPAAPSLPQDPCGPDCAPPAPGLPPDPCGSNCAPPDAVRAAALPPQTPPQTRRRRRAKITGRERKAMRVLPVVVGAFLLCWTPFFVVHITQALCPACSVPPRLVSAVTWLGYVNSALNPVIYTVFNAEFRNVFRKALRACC
Description: The D4 receptor responds to dopamine and other agonists by reducing adenyl cyclase mediated production of cyclic AMP. Particular test compounds were assayed for their ability to reverse dopamine inhibition of adenyl cyclase by the following procedure. Forskolin was used to elevate the basal adenyl cyclase activity.
CHO Pro 5 cells stably expressing human D4 receptors were plated in 6 well plates in DMEM (Dulbecco's Modified Eagle Medium)/F12(Nutrient Mixture F12 (Ham)) media with 10% FCS (fetal calf serum) and G418 (Geneticen Disulfate), and incubated at 37° C. in a CO2 incubator. The cells were allowed to grow to about 70% confluence before use in the assay.
The culture media of each well was removed by aspiration, and the wells were washed once with serum free media (SFM) (DMEM/F12) media. Then 2 mL of fresh SFM+IBMX media (SFM with 0.5 mM IBMX (3-isobutyl-1-methylxanthine0.1% ascorbic acid and 10 μM pargyline) was added to each well and then incubated at 37° C. for 10 minutes in CO2 incubator. Following incubation, SFM+IBMX media was aspirated and fresh SFM+IBMX media was added to wells separately with one of a) forskolin (10 μM final conc.); b) dopamine and forskolin (both 10 μM final conc.); […]), and dopamine and forskolin (both 10 μM final conc.). Basal adenyl cyclase activity was determined from wells with only SFM+IBMX media added.
The cells were then incubated at 37° C. for 30 minutes in a CO2 incubator. Following incubation the media was aspirated from each well and then washed once with 2 mL of PBS (phosphate buffered saline). […] The cells from each well were then scraped and transferred into individual Eppendorf tubes. The tubes were centrifuged for 5 min at 4° C., and the supernatants were transferred to new Eppendorf tubes. The pellets were discarded and the supernatants dried using a SpeedVac. The extracts were then reconstituted in 600 μL of 0.1M sodium acetate buffer, pH 6.1, and stored at 4° C. until assayed for cAMP concentration. cAMP content measured in fmoles/well for each extract was determined by EIA (enzyme-immunoassay) using Amersham Biotrak cAMP EIA kit (Amersham RPN 225).
Total inhibition (I0) of forskolin-stimulated adenyl cyclase activity by dopamine was determined as the difference in concentration of cAMP in the forskolin-treated cells (Cf) and dopamine-forskolin treated cells (Cd).
Net inhibition (I) of forskolin-stimulated adenyl cyclase activity by dopamine in the presence of an antagonist was determined as the difference in concentration of cAMP in the forskolin-treated cells (Cf) and test compound, dopamine and forskolin treated cells (C).

D4 receptor = conditions: D4 affinity of currently marketed products; cited from earlier work
[3] = system: D4 receptor relative to the D2 receptor; conditions: currently marketed products; cited from earlier work

| SMILES | Ki [1] [µM] | D2/D4 [2] | inhibition at 1 µM (human D4 receptors) [%] | inhibition at 10 µM (human D4 receptors) [%] | Ki (D4 receptor) [µM] | preference for binding the D4 receptor relative to the D2 receptor [3] |
| --- | --- | --- | --- | --- | --- | --- |
| Clc1ccc2c(c1)N=C(N1CCN3CCCCC3C1)c1ccccc1O2 (racemic) [8-chloro-11-[(R,S)-1,4-diazabicyclo[4.4.0]decan-4-yl]-dibenzo[b,f]-1,4-oxazepine] | 0.0157 | 6.8 |  |  |  |  |
| Clc1ccc2c(c1)N=C(N1CCN3C[C@@H](OCc4ccccc4)C[C@H]3C1)c1ccccc1O2 [8-chloro-11-[(6S,8S)-8-benzyloxy-1,4-diazabicyclo[4.3.0]non-4-yl]-dibenzo[b,f]-1,4-oxazepine] | 0.024 | 25.6 |  |  |  |  |
| O[C@H]1C[C@H]2CN(C3=Nc4cc(Cl)ccc4Oc4ccccc43)CCN2C1 [8-chloro-11-[(6S,8S)-8-hydroxy-1,4-diazabicyclo[4.3.0]non-4-yl]-dibenzo[b,f]-1,4-oxazepine] | 0.028 | 18.2 |  |  |  |  |
| Clc1ccc2c(c1)N=C(N1CCN3CCC[C@@H]3C1)c1ccccc1O2 [8-chloro-11-[(R)-1,4-diazabicyclo[4.3.0]non-4-yl]-dibenzo[b,f]-1,4-oxazepine] | 0.018 | 32.2 |  |  |  |  |
| Clc1ccc2c(c1)N=C(N1CCN3CCCC[C@@H]3C1)c1ccccc1O2 [8-chloro-11-[(R)-1,4-diazabicyclo[4.4.0]decan-4-yl]-dibenzo[b,f]-1,4-oxazepine] | 0.402 | 4.1 |  |  |  |  |
| Clc1ccc2c(c1)N=C(N1CCN3CCC[C@H]3C1)c1ccccc1O2 [8-chloro-11-[(S)-1,4-diazabicyclo[4.3.0]non-4-yl]-dibenzo[b,f]-1,4-oxazepine] | 0.0012 | 104.5 | 23 | 48 |  |  |
| Clc1ccc2c(c1)N=C(N1CCN3CCCC[C@H]3C1)c1ccccc1O2 [8-chloro-11-[(S)-1,4-diazabicyclo[4.4.0]decan-4-yl]-dibenzo[b,f]-1,4-oxazepine] | 0.001 | 40 | 52 | 93 |  |  |
| CN1CCN(C2=Nc3cc(Cl)ccc3Oc3ccccc32)CC1 [isoloxapine] |  |  |  |  | ~0.02 | about 10 fold |
